Literature values in patent publication US20040086492A1, “Method of treating tumor and consignment system of proliferating and processing activated lymphocytes to be used in parallel to pdt” (priority 2001, published 2004).

Conditions: stated as a characteristic of Photofrin

porfirmer sodium [Photofrin]
rate taken into cancerous tissue relative to normal tissue: approximately 10 times
